Data on 5 compounds can be found in publication PMC4186413, “Identification of metabolic pathways and enzyme systems involved in the in vitro human hepatic metabolism of dronedarone, a potent new oral antiarrhythmic drug” (Pharmacology Research & Perspectives, 2014).

Holding throughout (format): in vitro ADME
Series [1] in a line: Oxidative metabolism by human hepatic microsomal fractions with or without NADPH. The note with it: 1 mg·mL^−1, 5 μmol/L, 30 min. On the procedure: Human hepatic microsomal fractions were obtained from a large pool of human liver (150 individuals) prepared by BD Gentest-Biosciences (BD UltraPool™ HLM 150 – catalogue reference, 452118 Easy Count Box, Woburn, MA). This pooled human liver microsomal batch was also validated internally by the use of FDA-recommended CYP probes (FDA guidance for Industry, draft guidance February 2012).
(§1) For oxidative pathways, the assay mixture was composed of human liver microsomes (1 mg·m·L^−1) or microsomes of baculovirus-infected cells expressing human enzymes (100 pmol·mL^−1 for CYPs and 1 mg·mL^−1 for FMOs and MAOs), nicotinamide adenine dinucleotide phosphate reduced form (NADPH) (1 mmol/L), 100 mmol/L potassium phosphate (pH 7.4), and 5 μmol/L of the investigated compound dissolved in DMSO in a final volume of 500 μL.
(§2) The final concentration of DMSO in the reaction mixture was less than 1% (v/v). Initial rate conditions with respect to time and protein concentration for both the disappearance of unchanged drug and the formation of respective metabolites were established in preliminary studies. The enzyme reaction was initiated by addition of NADPH (10 mmol/L aqueous solution) to achieve a final concentration of 1 mmol/L for oxidative CYP- and FMO-dependent reactions or by the drug for MAO-dependent reactions, incubated at 37°C and stopped after 0–30 min by addition of one volume of ice-cold acetonitrile.
After removal of the proteins by centrifugation at 10,000 rpm for 10 min, a portion of the supernatant was analyzed by LC-UV-MS.
(§3) In human liver microsomes and recombinant isoforms, the percentage of metabolism was determined on the basis of unchanged drug disappearance, using the following equation [drawing 1] where UDt = 30 min represents the unchanged drug peak area after a 30-min incubation period and UDt = 0, the unchanged drug peak area at t = 0.
Dronedarone and its metabolites were incubated over 30 min with human hepatic microsomal fractions (1 mg·mL^−1) at a final concentration of 5 μmol/L, in the absence or the presence of 1 mmol/L NADPH, the cofactor for CYP- and FMO-dependent reactions.

Another series has as its system FMO-1, -3, and -5. Description: Oxidation by recombinant human FMOs. The following applies: 1 mg/mL, 5 μmol/L, 30 min, NADPH.
Description: (§4) Recombinant human CYPs (Supersomes™; BD Gentes, Woburn, MA: CYP1A1, CYP1A2, CYP2A6, CYP2B6, CYP2C8, CYP2C9, CYP2C18, CYP2C19, CYP2D6, CYP2E1, CYP3A4 and CYP3A5), FMOs (Supersomes™: FMO1, FMO3, FMO5), MAOs (Supersomes™: MAO-A and MAO-B), and UGTs (Supersomes™: UGT1A1, UGT1A3, UGT1A4, UGT1A6, UGT1A7, UGT1A8, UGT1A9, UGT1A10, UGT2B4, UGT2B7, UGT2B15, and UGT2B17) expressed in baculovirus-infected insect cells and control microsomes from insect cells infected with wild-type baculovirus were all obtained from BD Gentest (Woburn, MA).
as §1, §2, §3
(§5) To identify the specific isoforms that are capable of oxidizing dronedarone and its metabolites, assays were performed using c-DNA-expressed isoforms belonging to CYP- (CYP1A1, -1A2, -2A6, -2B6, -C8, -2C9, -2C18, -2C19, -2D6, -2E1, -3A4, and -3A5), FMO- (FMO-1, -3, and -5) and MAO- (MAO-A and MAO-B) families.
Figure 5 Contribution of individual CYPs, FMOs and MAOs to the oxidation of dronedarone and its metabolites. Individual CYPs (100 pmol/mL), FMOs (1 mg/mL) and MAOs (1 mg/mL) were incubated with either dronedarone (A) or its metabolites, N-debutyl-dronedarone (B), propanoic acid-dronedarone (C), and phenol-dronedarone (D), at a concentration of 5 μmol/L, for 30 min at 37°C in the presence of NADPH, except for MAOs where incubations were performed in the absence of cofactor. Unchanged drugs were quantified by LC/MS-MS relative to the synthetic references as described in Materials and Methods. Data are expressed as the percentage of oxidation.

In series [2] the test system is UGT1A1, UGT1A3, UGT1A4, UGT1A6, UGT1A7, UGT1A8, UGT1A9, UGT1A10, UGT2B4, UGT2B7, UGT2B15, and UGT2B17. Description: Glucuronidation by the panel of recombinant human UGT isoforms. The note with it: 1 mg/mL, 5 μmol/L, 30 min, UDPGA.
Description: as §4
For glucuronidation pathways, the assay mixture was composed of human liver microsomes (2 mg·mL^−1) or microsomes of baculovirus-infected cells expressing human UGTs (1 mg·mL^−1), uridine 5′-diphosphoglucuronic acid (UDPGA) (3 mmol/L), 100 mmol/L Tris HCl (pH 7.4) containing 5 mmol/L MgCl2 and 5 μmol/L of the investigated compound dissolved in DMSO in a final volume of 500 μL. The final concentration of DMSO in the reaction mixture was less than 1% (v/v). Initial rate conditions with respect to time and protein concentration for both the disappearance of unchanged drug and the formation of respective metabolites were established in preliminary studies. The microsomal mixture was first incubated for 10 min at 4°C in the presence of alamethicin (0.125 mg·mL^−1), then the reaction was initiated by addition of UDPGA (30 mmol/L aqueous solution) to achieve a final concentration of 3 mmol/L for UGT-dependent reactions, incubated at 37°C and stopped after 0–30 min by addition of one volume of ice-cold acetonitrile. […]
Figure 7 Contribution of individual UGTs to the glucuronidation of propanoic acid-dronedarone and phenol-dronedarone. […] Unchanged drugs were quantified by LC/MS-MS relative to the synthetic references as described in Materials and Methods. Data are expressed as the percentage of glucuronidation.

Another series has as its system MAO-A and MAO-B. As to the kind of experiment: Oxidation by recombinant human MAOs. The note with it: 1 mg/mL, 5 μmol/L, 30 min, no cofactor.
Description: as §4, §1, §2, §3, §5
Figure 5 Contribution of individual CYPs, FMOs and MAOs to the oxidation of dronedarone and its metabolites. […] Unchanged drugs were quantified by LC/MS-MS relative to the synthetic references as described in Materials and Methods. Data are expressed as the percentage of oxidation.

For `CCCCNCCCOc1ccc(C(=O)c2c(CCCC)oc3ccc(NS(C)(=O)=O)cc23)cc1` [N-debutyl-dronedarone], the “Parent drug metabolized by human hepatic microsomes” value (“Parent drug metabolized” below) in series [1] (absence of NADPH) and in series [1] (presence of 1 mmol/L NADPH) was 25–30% in each case. Moreover, the “Oxidation by FMOs” value with FMO-1, -3, and -5 was “Neither other CYPs nor FMOs metabolized N-debutyl-dronedarone to any significant extent”. The “Glucuronidation by recombinant human UGT isoforms” value (“Glucuronidation” for short) in series [2] was “No glucuronidation was observed”.
For `CCCCN(CCCC)CCCOc1ccc(C(=O)O)cc1` [C-dealkyl-dronedarone], the “Parent drug metabolized” value in series [1] (absence of NADPH) and in series [1] (presence of 1 mmol/L NADPH) was “No metabolism was observed” each time. Further, the “Oxidation by FMOs” value with FMO-1, -3, and -5 is on record as “not metabolized”. Besides, the “Oxidation by MAOs” value with MAO-A and MAO-B is on record as “not metabolized”. Moreover, in series [2], the “Glucuronidation” value is reported as “No glucuronidation was observed”.
As to `CCCCc1oc2ccc(NS(C)(=O)=O)cc2c1C(=O)c1ccc(O)cc1` [Phenol-dronedarone], the “Parent drug metabolized” value in series [1] (absence of NADPH) and in series [1] (presence of 1 mmol/L NADPH) was “very slow” throughout. Further, the “Oxidation by FMOs” value in the series on FMO-1, -3, and -5 is “contributed to a very small extent”. The “Oxidation by MAOs” value with MAO-A and MAO-B was “contributed to a very small extent”.
Consider `CCCCc1oc2ccc(NS(C)(=O)=O)cc2c1C(=O)c1ccc(OCCC(=O)O)cc1` [Propanoic acid-dronedarone], for which the “Parent drug metabolized” value in series [1] (absence of NADPH) is listed as “No metabolism occurred”; in series [1] (presence of 1 mmol/L NADPH), 50%. For the same compound, in the series on FMO-1, -3, and -5, the “Oxidation by FMOs” value is “Neither other CYPs, nor FMOs and MAOs metabolized propanoic acid-dronedarone to any significant extent”. Besides, the “Oxidation by MAOs” value in the series on MAO-A and MAO-B was “Neither other CYPs, nor FMOs and MAOs metabolized propanoic acid-dronedarone to any significant extent”.
For the compound `CCCCc1oc2ccc(NS(C)(=O)=O)cc2c1C(=O)c1ccc(OCCCN(CCCC)CCCC)cc1.Cl` [Dronedarone, N-(2-Butyl-3-(4-(3-(dibutylamino)propoxy)benzoyl)-5-benzofuranyl)methanesulfonamide, hydrochloride], the “Parent drug metabolized” value in series [1] (absence of NADPH) was “not metabolized”; in series [1] (presence of 1 mmol/L NADPH) it was ~60%. The “Oxidation by FMOs” value in the series on FMO-1, -3, and -5 is recorded as “not involved”. Moreover, the “Oxidation by MAOs” value with MAO-A and MAO-B is listed as “not involved”. In series [2], the “Glucuronidation” value is recorded as “No glucuronidation was observed”.
